# Test results published in US9399649B2, “Compounds for treating spinal muscular atrophy” (PTC Therapeutics Inc., priority 2012, dated 2016).
# System: Smn protein
# Assay: Smn protein in tissues of neonatal Δ7 SMA mice
# Assay type: in vivo
# Settings: neonatal SMA Δ7 homozygous knockout mice, IP QD for 7 days (PND 3 to PND 9), brain, spinal cord, muscle, FIG. 12
# Procedure: The tissue samples in Safe-Lock tubes are weighed and the volume of RIPA buffer containing the protease inhibitor cocktail is added based on the weight to volume ratios for each type of tissue: Brain (50 mgmL), Muscle (50 mgmL) and Spinal Cord (25 mgmL).
# Tissues are homogenized using the TissueLyzer by bead milling. 5 mm stainless steel beads are added to the sample and shaken vigorously for 5 minutes at 30 Hz in the TissueLyzer. The samples are then centrifuged for 20 minutes at 14,000×g in a microcentrifuge and the homogenates transferred to the PCR plate. The homogenates are diluted in RIPA buffer to approximately 1 mgmL for HTRF and approximately 0.5 mgmL for total protein measurement using the BCA protein assay. […] Fluorescence for each well of the plate at 665 nm and 620 nm is measured on an EnVision multilabel plate reader (Perkin-Elmer). The total protein in the tissue homogenate is measured using the BCA assay according to the manufacturer's protocol.
# The normalized fluorescence signal is calculated for each sample, Blank and vehicle control well by dividing the signal at 665 nm by the signal at 620 nm. Normalizing the signal accounts for possible fluorescence quenching due to the matrix effect of the tissue homogenate. […] The ΔF value for each tissue sample well is divided by the total protein quantity (determined using the BCA assay) for that tissue sample. […]
smiles,measurement,value
"Cc1cn2cc(-c3cc4ccc(N5CCN(C)CC5)cc4c(=O)o3)nc2c(C)n1 [Cpd 65, 3-(6,8-dimethylimidazo[1,2-a]pyrazin-2-yl)-7-(4-methylpiperazin-1-yl)-1H-isochromen-1-one]",total protein normalized Smn level in tissues,dose dependently increased
